Results taken from article PMC8026324, “In Vitro Antiplasmodial, Heme Polymerization, and Cytotoxicity of Hydroxyxanthone Derivatives” (Journal of Tropical Medicine, 2021).
In brackets after ≈: the same amount, converted by molar mass.

What was measured:
[1] = system: Plasmodium falciparum 3D-7 (chloroquine-sensitive strain); experiment: In vitro antiplasmodial activity assay, microscopic method, strain 3D-7; format: cell-based
How it was run: (§1)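 Sorbitol-synchronized ring-stage parasites at 1% parasitemia, 2% haematocrit in RPMI with 10% human O serum, exposed to compound dilutions in triplicate for 72 h at 37 °C. Parasitemia counted on Giemsa smears (≥1,000 erythrocytes); IC50 from growth inhibition by probit analysis.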

[2] = system: Plasmodium falciparum 3D-7; experiment: Flow cytometry method (SYBR green I / CD235A-PE); format: cell-based; settings: 72 hours incubation
Procedure: The Plasmodium falciparum strains of 3D-7 were used in this method. The plasmodium synchronized to obtain the ring stage by adding 5% of D-sorbitol. Plasmodium with 1% parasitemia was cultured in a 96-well microplate. The testing compounds were added in duplicate and incubated at 37°C for 72 hours. The samples were centrifuged with a speed of 1000 rpm for 10 minutes and washed twice in 100 μL of phosphate-buffered saline (PBS). Samples were incubated with 50 μL of 1 : 1000 SYBR green I and 20μL of CD235A-PE for 15 minutes at room temperature. Cells were washed and resuspended in PBS. Data were obtained using a FACSCalibur with the acquisition of 1,00,000 events per sample. Initial gating was done with uninfected and unstained erythrocytes to account for erythrocyte autofluorescence. The control plasmodium-infected erythrocyte was referred as 100% growth to calculate the percentage of growth inhibition after treated with testing compound.

MCF-7 = system: MCF-7; parameters: method as in earlier work; settings: cited from earlier work
Hela = system: Hela; parameters: method as in earlier work; settings: cited from earlier work
[3] = system: Plasmodium falciparum FCR-3 (chloroquine-resistant strain); experiment: In vitro antiplasmodial activity assay, microscopic method, strain FCR-3; format: cell-based
How it was run: as §1

[4] = system: formation of β-hematin (heme polymerization); experiment: In vitro heme polymerization inhibitory activity (HPIA) assay; format: biochemical
Procedure: The heme polymerization inhibitory activity (HPIA) was conducted according to Basilico et al.'s modified method. The 100 μL of 1 mM hematin in 0.2 M NaOH was added into a microtube. […] Distilled water was used as a negative control. The 50 μL solution of glacial acetic acid (pH 2.6) was added into the microtube to initiate the polymerization reaction and incubated at a temperature of 37°C for 24 hours. Microtubes were centrifuged at 8000 rpm for 10 minutes and the supernatant was discarded and then washed three times using the 200 μL dimethyl sulfoxide (DMSO).Then, the deposition of the hematin crystal was dissolved with 200 μL of 0.1 M NaOH and 100 μL of solution was added into the 96-well microplate.
Absorbance was read using ELISA reader at λ 405 nm. A standard curve was made to illustrate the relationship between the concentration of hematin and its absorbance. The various concentrations of hematin (250; 125; 62.5; 31.25; 15.6; 7.8; and […]) were used to make the standard curve. The heme polymerization inhibition was expressed as IC50, which is the concentration of testing compounds that can inhibit 50% of the formation of β-hematin. The IC50 value was calculated by probit analysis using SPSS software (IBM Corp., Chicago).

WIDR = system: WIDR; parameters: method as in earlier work; settings: cited from earlier work

## O=c1c2c(O)cccc2oc2cc(O)cc(O)c12 [HX1, 1,6,8-trihydroxyxanthone]
[1]; Plasmodium falciparum, 6.39 μM, read-out: Growth inhibition of P. falciparum Strain 3D-7
  inhibition at 6.39 µM: 47.4 ± 5.86%
[1]; Plasmodium falciparum, 12.8 μM, read-out: Growth inhibition of P. falciparum Strain 3D-7
  inhibition at 12.8 µM: 61.5 ± 0.71%
[1]; Plasmodium falciparum, 25.59 μM, read-out: Growth inhibition of P. falciparum Strain 3D-7
  inhibition at 25.59 µM: 64.7 ± 0.861%
[1]; Plasmodium falciparum, 51.19 μM, read-out: Growth inhibition of P. falciparum Strain 3D-7
  inhibition at 51.19 µM: 69 ± 0.888%
[1]; Plasmodium falciparum, 102.38 μM, read-out: Growth inhibition of P. falciparum Strain 3D-7
  inhibition at 102.38 µM: 75.86 ± 0.471%
[1]; Plasmodium falciparum, 72 hours incubation, microscopic method, read-out: IC50 on P. falciparum 3D-7
  IC50: 6.1 ± 2.01 µM
[1]; category by IC50
  antiplasmodial activity category on P. falciparum 3D-7: good (good (IC50 1–20 μM))
[2]; 102.38 μM
  inhibition activity of P. falciparum 3D-7 growth (flow cytometry): showed inhibition activity
[2]; Plasmodium falciparum, 204.75 μM, read-out: inhibition activity of P. falciparum 3D-7 growth (flow cytometry)
  inhibition at 204.75 µM: > 90%
MCF-7
  cytotoxicity on MCF-7 (in words): weak
MCF-7; in vitro cytotoxicity
  IC50 on MCF-7 cell line: 45 µg/mL (≈ 184 µM)
Hela
  cytotoxicity on Hela (in words): weak
Hela; in vitro cytotoxicity
  IC50 on Hela cell line: 67.7 µg/mL (≈ 277 µM)
[3]; Plasmodium falciparum, FCR3, 6.39 μM, read-out: Growth inhibition of P. falciparum Strain FCR-3
  inhibition at 6.39 µM: 50.9 ± 2.31%
[3]; Plasmodium falciparum, FCR3, 12.8 μM, read-out: Growth inhibition of P. falciparum Strain FCR-3
  inhibition at 12.8 µM: 55.2 ± 3.59%
[3]; Plasmodium falciparum, FCR3, 25.59 μM, read-out: Growth inhibition of P. falciparum Strain FCR-3
  inhibition at 25.59 µM: 60.2 ± 2.74%
[3]; Plasmodium falciparum, FCR3, 51.19 μM, read-out: Growth inhibition of P. falciparum Strain FCR-3
  inhibition at 51.19 µM: 64.4 ± 0.671%
[3]; Plasmodium falciparum, FCR3, 102.38 μM, read-out: Growth inhibition of P. falciparum Strain FCR-3
  inhibition at 102.38 µM: 73.7 ± 4.28%
[3]; Plasmodium falciparum, FCR3, 72 hours incubation, microscopic method, read-out: IC50 on P. falciparum FCR-3
  IC50: 6.76 ± 2.38 µM
[3]; category by IC50
  antiplasmodial activity category on P. falciparum FCR-3: good (good (IC50 1–20 μM))
[4]; 24 hours, 37°C, glacial acetic acid pH 2.6
  IC50: 2850 µM
[4]; compound 1.269 mM
  Inhibition of β-hematin: 33.901%
  β-Hematin formed: 72.500 mM
[4]; compound 2.580 mM
  Inhibition of β-hematin: 49.149%
  β-Hematin formed: 55.776 mM
[4]; compound 5.119 mM
  Inhibition of β-hematin: 50.359%
  β-Hematin formed: 54.448 mM
[4]; compound 10.238 mM
  Inhibition of β-hematin: 86.893%
  β-Hematin formed: 14.376 mM
[4]; compound 20.475 mM
  Inhibition of β-hematin: 91.171%
  β-Hematin formed: 9.684 mM
WIDR
  cytotoxicity on WIDR (in words): weak
WIDR; in vitro cytotoxicity
  IC50 on WIDR cell line: 61.9 µg/mL (≈ 253 µM)
